# Experimental data from US8937089B2, “Synergistic mixtures of anthranilamide invertebrate pest control agents” (priority 2004, dated 2015).
# Legend:
# Format in all cases: in vivo
# [1] = system: silverleaf whitefly (Bemisia argentifolii Bellows and Perring); assay: whole plant or invertebrate; details: Table 2B
# Outline: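 Whitefly-egg-infested 12–14-day-old cotton plants sprayed with compound in 10% acetone/90% water plus 300 ppm non-ionic surfactant, in triplicate. Plants then held 13 days at 28 °C and 50–70% relative humidity before mortality assessment.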
# [2] = system: western flower thrip (Frankliniella occidentalis Pergande); assay: whole plant or invertebrate; details: single compound, spray, 7 days
# Outline: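 Compounds in 10% acetone/90% water with 300 ppm non-ionic surfactant were sprayed onto 5- to 7-day-old bean plants, 3 replicates. After 1 h drying, 22–27 adult thrips were added per unit. Units were held 7 days at 25° C, 45–55% RH, assessing contact and/or systemic control.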
# [3] = system: potato leafhopper (Empoasca fabae Harris); assay: whole plant or invertebrate; details: alone
# Outline: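 Bean plants (5–6 days old, one primary leaf excised) were sprayed with 1 mL of compound in 10% acetone/water with 300 ppm X-77 surfactant, 3 replicates. After drying for 1 h, each unit was infested with 5 adult leafhoppers. Units were held 6 days at 19–21 °C and 50–70% RH.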
# [4] = system: corn planthopper (Peregrines maidis); assay: whole plant or invertebrate; details: Corn Plant Hopper
# Outline: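 Compounds in 10% acetone/90% water with 300 ppm X-77 surfactant sprayed (3 replications) onto 3- to 4-day-old corn plants, dried 1 h, then infested with 10–20 corn planthopper nymphs aged 18–20 days. Held 6 days at 19-21° C. and 50-70% relative humidity; contact and/or systemic control assessed.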
# [5] = system: cotton melon aphid (Aphis gossypii Glover); assay: whole plant or invertebrate
# Outline: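 Cotton plants (6–7 days old) pre-infested with 30–40 aphids by cut-leaf method, sprayed with compound (ppm) in 10% acetone/90% water with 300 ppm X-77 surfactant, three replicates. Held 6 days at 19–21 °C, 50–70% RH; contact and/or systemic control assessed.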
# [6] = system: green peach aphid (Myzus persicae Sulzer); assay: whole plant or invertebrate; details: Green Peach Aphid
# Outline: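 Compounds formulated in 10% acetone/water with 300 ppm X-77 surfactant were atomized onto aphid-infested radish seedlings, with three replicates per treatment. Infestation was 30–40 aphids transferred on excised leaf pieces, covering contact and systemic exposure. Test units stayed 6 days in a growth chamber at 19–21 °C and 50–70% relative humidity.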
# [7] = system: diamondback moth (Plutella xylostella); assay: whole plant or invertebrate
# Experimental: The test compounds were dissolved in water. […] Serial dilutions were made to obtain the appropriate concentrations. To obtain the desired mixture concentrations of each compound, twice the desired concentration of each of the two mixture partner compounds were mixed together in equal volumes.
# The diluted solutions of the test compounds were sprayed to run-off on three-week-old tomato plants. The plants were placed on a rotating turntable sprayer (10 rpm). Test solutions were applied using a flat fan air-assisted nozzle (Spraying Systems 122440) at 10 psi (69 kPa). […] The leaves were cut into pieces, which were placed singly into 5.5 cm-by-3.5 cm cells of a sixteen-cell plastic tray. Each cell contained a 2.5-cm square of moistened chromatography paper to prevent desiccation. One insect was placed in each cell. There two trays per treatment. Trays were held in the growth chamber at 25° C., 16-hour light:8-hour dark, 60% relative humidity for 4 days.
# For evaluating control of diamondback moth (Plutella xylostella), cabbage (var. Stonehead) plants were grown in Metromix potting soil in 10-cm pots in aluminum trays to test size (28 days, 3-4 full leaves) the plants were sprayed to the point of runoff using the turntable sprayer as described in Test I. Test compounds were formulated and sprayed on test plants as described for Test I. After drying for 2 hours, the treated leaves were excised and infested with one cabbage looper per cell and covered. The test units were placed on trays and put in a growth chamber at 25° C. and 60% relative humidity for 4 days.
# [8] = system: beet armyworm (Spodoptera exigua); assay: Test I: control of beet armyworm, spray on tomato plants, excised leaves, % mortality and % feeding at 72 hours
# Experimental: For evaluating control of beet armyworm (Spodoptera exigua), methomyl was in the liquid formulation as Lannate® LV (29% of active ingredient). Compound 1 was in a water dispersible granules (WDG) formulation with 35% active ingredient. The test compounds were dissolved in water. Enough water was added to make 100 ppm of active ingredient for each compound. Serial dilutions were made to obtain the appropriate concentrations. To obtain the desired mixture concentrations of each compound, twice the desired concentration of each of the two mixture partner compounds were mixed together in equal volumes.
# The diluted solutions of the test compounds were sprayed to run-off on three-week-old tomato plants. The plants were placed on a rotating turntable sprayer (10 rpm). Test solutions were applied using a flat fan air-assisted nozzle (Spraying Systems 122440) at 10 psi (69 kPa). After each treated plant had dried, leaves were excised from the treated plant. The leaves were cut into pieces, which were placed singly into 5.5 cm-by-3.5 cm cells of a sixteen-cell plastic tray. Each cell contained a 2.5-cm square of moistened chromatography paper to prevent desiccation. One insect was placed in each cell. There two trays per treatment. […]
molecule,measurement,setting,value
N#CCNC(=O)c1cnccc1C(F)(F)F [Flonicamid],% mortality (obs),[1]; rate 0.1 ppm,2%
same,% mortality (obs),[1]; rate 0.2 ppm,2%
same,% mortality (obs),[1]; rate 0.5 ppm,2%
same,% mortality (obs),[2]; rate 10 ppm,20%
same,% mortality (obs),[2]; rate 100 ppm,80%
same,% mortality (obs),[2]; rate 1000 ppm,70%
same,% mortality (obs),[3]; rate 100 ppm,100%
same,% mortality (obs),[3]; rate 400 ppm,100%
same,% mortality (obs),[3]; rate 1000 ppm,40%
same,% mortality (obs),[4]; rate 2 ppm,52%
same,% mortality (obs),[4]; rate 15 ppm,42%
same,% mortality (obs),[4]; rate 150 ppm,90%
same,% mortality (obs),[5]; rate 0.2 ppm,9%
same,% mortality (obs),[5]; rate 1 ppm,46%
same,% mortality (obs),[5]; rate 5 ppm,92%
same,% mortality (obs),[6]; rate 0.1 ppm,16%
same,% mortality (obs),[6]; rate 0.2 ppm,10%
same,% mortality (obs),[6]; rate 2 ppm,33%
same,% mortality (obs),[7]; rate 1 ppm,0%
same,% mortality (obs),[7]; rate 15 ppm,60%
same,% mortality (obs),[7]; rate 1000 ppm,30%
CNC(=O)ON=C(C)SC [Methomyl],% mortality (obs),[1]; rate 10 ppm,4%
same,% mortality (obs),[1]; rate 100 ppm,3%
same,% mortality (obs),[1]; rate 1000 ppm,6%
same,% mortality (obs),[2]; rate 30 ppm,60%
same,% mortality (obs),[2]; rate 100 ppm,60%
same,% mortality (obs),[2]; rate 300 ppm,100%
same,% mortality (obs),[3]; rate 1 ppm,0%
same,% mortality (obs),[3]; rate 2 ppm,53%
same,% mortality (obs),[3]; rate 5 ppm,100%
same,% mortality (obs),[4]; rate 0.5 ppm,5%
same,% mortality (obs),[4]; rate 1 ppm,21%
same,% mortality (obs),[4]; rate 2 ppm,19%
same,% mortality (obs),[5]; rate 2 ppm,11%
same,% mortality (obs),[5]; rate 5 ppm,35%
same,% mortality (obs),[5]; rate 15 ppm,64%
same,% mortality (obs),[6]; rate 50 ppm,20%
same,% mortality (obs),[6]; rate 100 ppm,61%
same,% mortality (obs),[6]; rate 200 ppm,100%
same,% feeding,[8]; Methomyl 5.22 ppm,17%
same,% mortality (observed),[8]; Methomyl 5.22 ppm,6%
same,% feeding,[8]; Methomyl 10.9 ppm,29%
same,% mortality (observed),[8]; Methomyl 10.9 ppm,10%
same,% feeding,[8]; Methomyl 16.3 ppm,9%
same,% mortality (observed),[8]; Methomyl 16.3 ppm,44%
same,% feeding,[8]; Methomyl 20.6 ppm,10%
same,% mortality (observed),[8]; Methomyl 20.6 ppm,16%
same,% feeding,[8]; Methomyl 37.8 ppm,3%
same,% mortality (observed),[8]; Methomyl 37.8 ppm,44%
same,% feeding,[8]; Methomyl 100 ppm,0%
same,% mortality (observed),[8]; Methomyl 100 ppm,84%
same,% mortality (obs),[7]; rate 30 ppm,80%
same,% mortality (obs),[7]; rate 40 ppm,90%
same,% mortality (obs),[7]; rate 50 ppm,80%
Dieldrin,% mortality (obs),[1]; rate 10 ppm,0%
same,% mortality (obs),[1]; rate 100 ppm,0%
same,% mortality (obs),[1]; rate 1000 ppm,0%
same,% mortality (obs),[2]; rate 10 ppm,10%
same,% mortality (obs),[2]; rate 100 ppm,20%
same,% mortality (obs),[2]; rate 1000 ppm,30%
same,% mortality (obs),[3]; rate 2.5 ppm,27%
same,% mortality (obs),[3]; rate 5 ppm,100%
same,% mortality (obs),[3]; rate 10 ppm,100%
same,% mortality (obs),[4]; rate 0.1 ppm,37%
same,% mortality (obs),[4]; rate 0.2 ppm,57%
same,% mortality (obs),[4]; rate 0.3 ppm,71%
same,% mortality (obs),[5]; rate 1 ppm,13%
same,% mortality (obs),[5]; rate 5 ppm,26%
same,% mortality (obs),[5]; rate 50 ppm,66%
same,% mortality (obs),[6]; rate 10 ppm,59%
same,% mortality (obs),[6]; rate 100 ppm,43%
same,% mortality (obs),[6]; rate 1000 ppm,41%
same,% mortality (obs),[7]; rate 2 ppm,90%
same,% mortality (obs),[7]; rate 2.5 ppm,100%
same,% mortality (obs),[7]; rate 3 ppm,100%
